Results reported in patent US9822115B2, “Nitrogen containing compounds and their use as antibacterial agents” (WOCKHARDT LIMITED, priority 2014, dated 2017).
Values after ≈ are worked out from the molar mass of the structure shown. Like-named read-outs stand apart in the source and are kept apart here.

Experiments:
Assay type in all cases: cell-based
[1] = tested on: E. coli NCTC 13353 (CTX-M15, OXA-1); assay: Antibacterial activity, MIC by agar dilution (CLSI); details: Escherichia coli, read-out: MIC
In short: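 CLSI agar dilution on Mueller Hinton agar containing doubling compound dilutions, inoculated at about 10^4 CFU/spot from fresh cultures. Plates were incubated 18 h at 37 °C in ambient air before growth scoring. MIC is reported in mcg/ml.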

[2] = tested on: K. pneumoniae H521 (KPC, SHV, TEM); assay: as above; details: Klebsiella pneumoniae, read-out: MIC
In short: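 Agar dilution per CLSI on Mueller Hinton agar with doubling compound dilutions, about 10^4 CFU/spot by multipoint inoculator. Plates incubated 16-20 h at 35±2° C in ambient air; procedure also gives 37° C for 18 h. MIC (mcg/ml) scored as growth or no growth.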

E. coli NCTC 13353 = assay: Zone of inhibition, compound alone and in combination with ceftazidime (agar well); details: Escherichia coli, NCTC13353, E. coli NCTC 13353, read-out: Diameter of Zone of Inhibition; for zone of inhibition at 0.25 µg/disc: 0.25 μg/well; for zone of inhibition at 0.5 µg/disc: 0.5 μg/well; for zone of inhibition at 1 µg/disc: 1 μg/well
Method: (§1) Determination of antibacterial activity of combinations according to invention: In a typical experiment, two sets of plates containing growth media (Molten Mueller Hilton Agar) and bacterial strains were prepared. One set of plates was taken as control (without ceftazidime) and other set contained ceftazidime. The media was allowed to solidify and wells were punched later. A two-fold serial dilution range of each of the compounds according to invention was prepared and 50 μl of each of the dilution was added into the punched well. […] The Table 5 provides the antibacterial activity of the combination comprising compounds according to invention and ceftazidime.

E. coli M50 = assay: as above; details: Escherichia coli, M50, E. coli M50, read-out: Diameter of Zone of Inhibition; for zone of inhibition at 0.25 µg/disc: 0.25 μg/well; for zone of inhibition at 0.5 µg/disc: 0.5 μg/well; for zone of inhibition at 1 µg/disc: 1 μg/well
Method: as §1

E. coli 7 MP = assay: Antibacterial activity, MIC by agar dilution (CLSI); details: Escherichia coli, Table 3
Method: (§2) The biological activity of representative compounds according to the invention against various bacterial strains was investigated. In a typical study, overnight grown bacterial cultures were diluted appropriately and inoculated on the agar media containing doubling dilutions of the test compounds. Observations for growth or no growth was performed after 16-20 hours of incubation at 35±2° C. in the ambient air. The overall procedure was performed as per Clinical and Laboratory Standards Institute (CLSI) recommendations, (Clinical and Laboratory Standards Institute (CLSI), Performance Standards for Antimicrobial Susceptibility Testing, 20th Informational Supplement, M07-A9, Volume 32, No. 2, 2012). Molten Mueller Hinton Agar (BD, USA) containing serial dilutions of each antibacterial agent were poured on to the plates and allowed to solidify. Appropriate suspensions from the freshly grown cultures were prepared in normal saline so that about 10^4 CFU/spot of the organism was delivered on to the drug containing agar plates using automated multipoint inoculator (Mast, UK). The plates were incubated in Biochemical oxygen demand (BOD) incubator at 37° C. for 18 hours and then examined for growth.
(§3) Table 3 details the antibacterial activity of representative compound of Formula (I), Sodium salt of (2S,5R)-Sulfuric acid mono-[2-(N′-(4-hydroxyphenyl-acetyl)-hydrazinocarbonyl)-7-oxo-1,6-diaza-bicyclo[3.2.1]oct-6-yl]ester (Compound of Example 1) and Sodium salt of (2S,5R)-Sulfuric acid mono-[2-(N′-(pyridine-2-yl-acetyl)-hydrazinocarbonyl)-7-oxo-1,6-diaza-bicyclo[3.2.1]oct-6-yl] ester (Compound of Example 8), against various Multi Drug Resistant (MDR) Gram-negative bacterial strains.

P. aeruginosa PAO1 = assay: as above; details: Pseudomonas aeruginosa, Table 3
Method: as §2, §3

E. coli NCTC 13352 = assay: as above; details: Escherichia coli, NCTC13352, Table 3
Method: as §2, §3

E. coli NCTC 13351 = assay: as above; details: Escherichia coli, NCTC13351, Table 3
Method: as §2, §3

K. pneumoniae S 21 = assay: as above; details: Klebsiella pneumoniae, S21, Table 3
Method: as §2, §3

K. pneumoniae B 88 = assay: as above; details: Klebsiella pneumoniae, B88, Table 3
Method: as §2, §3

P. aeruginosa R 20 = assay: as above; details: Pseudomonas aeruginosa, R20, Table 3
Method: as §2, §3

K. pneumoniae H 525 = assay: as above; details: Klebsiella pneumoniae, H525, Table 3
Method: as §2, §3

P. aeruginosa ATCC 27853 = assay: as above; details: Pseudomonas aeruginosa, ATCC27853, Table 3
Method: as §2, §3

P. aeruginosa 2779 = assay: as above; details: Pseudomonas aeruginosa, Table 3
Method: as §2, §3

E. cloacae M 20 = assay: as above; details: Enterobacter cloacae, M20, Table 3
Method: as §2, §3

E. coli M 49 = assay: as above; details: Escherichia coli, M49, Table 3
Method: as §2, §3

C. frundaii 58 MP = assay: as above; details: Table 3
Method: as §2, §3

E. coli M 50 = assay: as above; details: Escherichia coli, M50, Table 3
Method: as §2, §3

[3] = NCTC13353, Table 2, E. Coli NCTC 13353 (CTX-M15, OXA-1)
[4] = NCTC13353, Table 3, E. coli NCTC 13353
[5] = Table 2, K. pneumoniae H521 (KPC, SHV, TEM)
[6] = Compound + Ceftazidime (10 μg/ml)

O=C(Cc1ccc(O)cc1)NNC(=O)[C@@H]1CC[C@@H]2CN1C(=O)N2OS(=O)(=O)[O-].[Na+] [Example 1, Sodium Salt of (2S,5R)-Sulfuric Acid mono-[2-(N′-(4-hydroxyphenyl-acetyl)-hydrazinocarbonyl)-7-oxo-1,6-diaza-bicyclo[3.2.1]oct-6-yl]ester]
MIC [1, 3]: 0.5 µg/mL
MIC [1, 4]: 0.5 µg/mL
MIC [2, 5]: 1 µg/mL
MIC ([2]; Table 3, K. pneumoniae H 521): 1 µg/mL
zone of inhibition at 0.25 µg/disc (E. coli NCTC 13353; [6]): 18 mm
zone of inhibition at 0.5 µg/disc (E. coli NCTC 13353; [6]): 21 mm
zone of inhibition at 1 µg/disc (E. coli NCTC 13353; [6]): 25 mm
zone of inhibition at […] (E. coli NCTC 13353; [6]): 16 mm
zone of inhibition at 0.25 µg/disc (E. coli NCTC 13353; Compound alone): 14.5 mm
zone of inhibition at 0.5 µg/disc (E. coli NCTC 13353; Compound alone): 15.5 mm
zone of inhibition at 1 µg/disc (E. coli NCTC 13353; Compound alone): 17 mm
zone of inhibition at 0.25 µg/disc (E. coli M50; [6]): 16 mm
zone of inhibition at 0.5 µg/disc (E. coli M50; [6]): 19 mm
zone of inhibition at 1 µg/disc (E. coli M50; [6]): 22 mm
zone of inhibition at […] (E. coli M50; [6]): 13 mm
zone of inhibition at 0.25 µg/disc (E. coli M50; Compound alone): 12 mm
zone of inhibition at 0.5 µg/disc (E. coli M50; Compound alone): 13.5 mm
zone of inhibition at 1 µg/disc (E. coli M50; Compound alone): 16 mm
MIC (E. coli 7 MP): 1 µg/mL
MIC (P. aeruginosa PAO1): > 32 µg/mL
MIC (E. coli NCTC 13352): 0.25 µg/mL
MIC (E. coli NCTC 13351): 0.25 µg/mL
MIC (K. pneumoniae S 21): 2 µg/mL
MIC (K. pneumoniae B 88): 0.5 µg/mL
MIC (P. aeruginosa R 20): > 32 µg/mL
MIC (K. pneumoniae H 525): 0.5 µg/mL
MIC (P. aeruginosa ATCC 27853): > 32 µg/mL
MIC (P. aeruginosa 2779): > 32 µg/mL
MIC (E. cloacae M 20): 1 µg/mL
MIC (E. coli M 49): 2 µg/mL
MIC (C. frundaii 58 MP): 32 µg/mL
MIC (E. coli M 50): 0.5 µg/mL

NCCOc1ccccc1CC(=O)NNC(=O)[C@@H]1CC[C@@H]2CN1C(=O)N2OS(=O)(=O)O [Example 2, (2S,5R)-Sulfuric Acid mono-[2-(N′-{2-[2-(2-amino-ethoxy)-phenyl]-acetyl}-hydrazinocarbonyl)-7-oxo-1,6-diaza-bicyclo[3.2.1]oct-6-yl]ester]
MIC [1, 3]: 1 µg/mL (≈ 2.19 µM)
MIC [1, 4]: 0.5 µg/mL (≈ 1.09 µM)
MIC [2, 5]: 1 µg/mL (≈ 2.19 µM)
MIC ([2]; Table 3, K. pneumoniae H 521): 2 µg/mL (≈ 4.37 µM)
zone of inhibition at 0.25 µg/disc (E. coli NCTC 13353; [6]): 21 mm
zone of inhibition at 0.5 µg/disc (E. coli NCTC 13353; [6]): 24 mm
zone of inhibition at 1 µg/disc (E. coli NCTC 13353; [6]): 28 mm
zone of inhibition at […] (E. coli NCTC 13353; [6]): 17 mm
zone of inhibition at 0.25 µg/disc (E. coli NCTC 13353; Compound alone): 11 mm
zone of inhibition at 0.5 µg/disc (E. coli NCTC 13353; Compound alone): 14 mm
zone of inhibition at 1 µg/disc (E. coli NCTC 13353; Compound alone): 16 mm
zone of inhibition at 0.25 µg/disc (E. coli M50; [6]): 13 mm
zone of inhibition at 0.5 µg/disc (E. coli M50; [6]): 16.5 mm
zone of inhibition at 1 µg/disc (E. coli M50; [6]): 18.5 mm
zone of inhibition at […] (E. coli M50; [6]): 10 mm
zone of inhibition at 0.25 µg/disc (E. coli M50; Compound alone): 10 mm
zone of inhibition at 0.5 µg/disc (E. coli M50; Compound alone): 14 mm
zone of inhibition at 1 µg/disc (E. coli M50; Compound alone): 16 mm
MIC (E. coli 7 MP): 2 µg/mL (≈ 4.37 µM)
MIC (P. aeruginosa PAO1): > 32 µg/mL
MIC (E. coli NCTC 13352): 1 µg/mL (≈ 2.19 µM)
MIC (E. coli NCTC 13351): 1 µg/mL (≈ 2.19 µM)
MIC (K. pneumoniae S 21): 2 µg/mL (≈ 4.37 µM)
MIC (K. pneumoniae B 88): > 32 µg/mL
MIC (P. aeruginosa R 20): > 32 µg/mL
MIC (K. pneumoniae H 525): 1 µg/mL (≈ 2.19 µM)
MIC (P. aeruginosa ATCC 27853): > 32 µg/mL
MIC (P. aeruginosa 2779): > 32 µg/mL
MIC (E. cloacae M 20): 2 µg/mL (≈ 4.37 µM)
MIC (E. coli M 49): 2 µg/mL (≈ 4.37 µM)
MIC (C. frundaii 58 MP): 16 µg/mL (≈ 35 µM)
MIC (E. coli M 50): 1 µg/mL (≈ 2.19 µM)
